Patent publication US10188666B2, “Dendrogenin A and antineoplastic agents for the treatment of chemosensitive or chemoresistant tumors” (priority 2013, dated 2019)
Read-outs that look alike come from different tables or passages of the source.

Key:
MV4-11 cells = assay: MTT cell viability assay, MV4-11 cells; format: cell-based; conditions: for sensitivity of MV4-11 cells (cell viability, in words): single agent
Method: (§1) Briefly, effect of drugs alone and in combinations were determined for a 3-5 log scale of concentrations of drugs and with a constant ratio between the two drugs used for co-treatment. Cells were seeded in 96-well plates (50 000 cell/well). Cells were treated just after seeding, for 48 hours. Cell viability was determined with MTT assay. Cells were centrifuged 5 minutes at 1200 rpm, medium removed, 100 μl of MTT solution (1 mg/ml in PBS) added, incubated for 2 hours at 37° C., centrifuged, MTT solution removed and DMSO (100 μl) added to dissolve purple formazan formed by living cells. Absorbance of the solution was determined at 540 nm.
(§2) HL60, KG1, KG1a and MV4-11 cells were seeded in 96-well plates (50 000 cells/well). Cells were treated just after seeding with increasing doses of daunorubicin, for 48 hours. Cell viability was determined with MTT assay as follows: cells were centrifuged 5 minutes at 1200 rpm, medium removed, 100 μl of MTT solution (1 mg/ml in PBS) added, incubated for 2 hours at 37° C., centrifuged, MTT solution removed and DMSO (100 μl) added to dissolve purple formazan formed by living cells. Absorbance of the solution was determined at 540 nm.
(§3) HL60, KG1, KG1a and MV4-11 cells were seeded in 96-well plates (50 000 cells/well). Cells were treated just after seeding with increasing doses of cytarabine, for 48 hours.
(§4) HL60, KG1, KG1a and MV4-11 cells were seeded in 96-well plates (50 000 cells/well).
(§5) HL60, KG1, KG1a and MV4-11 cells were seeded in 96-well plates (50 000 cells/well). Cells were treated just after seeding with increasing doses of cisplatin, for 48 hours.
(§6) HL60, KG1, KG1a and MV4-11 cells were seeded in 96-well plates (50 000 cells/well). Cells were treated just after seeding with increasing doses of Dendrogenin A, for 48 hours.
(§7) MV4-11 cells were seeded in 96-well plates (50 000 cells/well).
as §7

HL60 cells = assay: MTT cell viability assay, HL60 cells; format: cell-based
Method: as §1, §2, §3, §4, §5, §6
(§8) HL60 cells were seeded in 96-well plates (50 000 cells/well).
HL60 cells were seeded in 96-well plates (50 000 cells/well). Cells were treated just after seeding with increasing doses of Dendrogenin A and Cisplatin, for 48 hours.
as §8
HL60 cells were seeded in 96-well plates (50 000 cells/well). Cells were treated just after seeding with increasing doses of Dendrogenin A and arsenic trioxide, for 48 hours.
as §8

KG1 cells = assay: MTT cell viability assay, KG1 cells; format: cell-based; conditions: 48 hours
Method: as §1, §2, §3, §4, §5, §6
(§9) KG1 cells were seeded in 96-well plates (50 000 cells/well).
as §9, §9
KG1 cells were seeded in 96-well plates (50 000 cells/well). Cells were treated just after seeding with increasing doses of Dendrogenin A and Cisplatin, for 48 hours.
as §9
KG1 cells were seeded in 96-well plates (50 000 cells/well). Cells were treated just after seeding with increasing doses of Dendrogenin A and arsenic trioxide, for 48 hours.
as §9

KG1a cells = assay: MTT cell viability assay, KG1a cells; format: cell-based; conditions: for sensitivity of KG1a cells compared to KG1 cells (cell viability, in words): single agent
Method: as §1, §2, §3, §4, §5, §6
(§10) KG1a cells were seeded in 96-well plates (50 000 cells/well).
as §10
KG1a cells were seeded in 96-well plates (50 000 cells/well). […]

[1] = test system: chemoresistant cancer cell line KG1a; assay: Cell death induction, Trypan blue counting, KG1a cells; format: cell-based; conditions: 48 hours; for cell death induction by the antineoplastic agent alone: KG1a, Daunorubicin 0.5 μM or cytarabine 1 μM
Method: In a 6-microwell plate was seeded 0.5·10^6 cells of KG1a cell line. The same day, Solvant vehicule or different concentrations of Dendrogenin A (final concentrations: 5 and 10 μM) alone or in combination with Daunorubicin (final concentration: 0.5 μM) or cytarabine (final concentration: 1 μM) were added into the well. After 48 hours of incubation, the cells suspensions were centrifuged and cell pellets were resuspended in the Trypan blue solution (0.25% (w/v) in PBS) and counted in a Malassez cell under a light microscope.

[2] = test system: drug sensitive cancer cell line KG1; assay: Cytotoxic activity, Trypan blue counting, KG1 cells; conditions: for cytotoxic activity of the antineoplastic agent alone: KG1, Daunorubicin 0.05-0.5 μM or cytarabine 0.1-1 μM, 48 hours
Method: In a 6-microwell plate was seeded 0.5.10^6 cells of KG1 cell line. […] Then, Daunorubicin (final concentration: 0.05, 0.1, 0.25 and 0.5 μM) or cytarabine (final concentration: 0.1, 0.2, 0.5 and 1 μM) were added to […]. After the cells were cultured for additional 48 hours, culture suspensions were centrifuged and cell pellets were resuspended in the Trypan blue solution (0.25% (w/v) in PBS) and counted in a Malassez cell under a light microscope.

AML patient cells = assay: Cell death of AML patient samples, Annexin V-FitC/7-AAD flow cytometry; format: cell-based; conditions: Dendrogenin A 5 μM alone, 48 hours
Method: In a 6-microwell plate were seeded 0.5.10^6 patient cells. The same day, Solvant vehicle or different concentrations of Dendrogenin A (final concentrations: 5 μM) alone or in combination with Daunorubicin (final concentration: 10 nM) were added into the well. After 48 hours of incubation, the cells suspensions were centrifuged and washed with PBS and cell pellets were resuspended in a labeling solution containing Annexin V-FitC and 7-AAD as described in the kit protocol (Annexin V-FitC/7-AAD staining kit, Roche Applied Science). Cells were then incubated for 15 minutes at room temperature in the dark and analyzed by Facs Flow cytometry.

[3] = molecular target: cholesterol epoxide hydrolase (Homo sapiens, UniProt Q15125); conditions: de Medina et al., Nature Communications, 2013; cited from earlier work
cholesterol epoxide hydrolase, sequence (Q15125 whole entry): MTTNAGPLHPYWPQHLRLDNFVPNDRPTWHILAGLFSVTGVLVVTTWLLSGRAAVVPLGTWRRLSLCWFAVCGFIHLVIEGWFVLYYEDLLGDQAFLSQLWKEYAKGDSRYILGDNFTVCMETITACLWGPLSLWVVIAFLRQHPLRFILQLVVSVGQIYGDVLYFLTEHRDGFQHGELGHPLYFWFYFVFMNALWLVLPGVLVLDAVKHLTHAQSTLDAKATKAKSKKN

[4] = Homo sapiens, KG-1, KG1 cell line
[5] = Homo sapiens, KG-1a, KG1a cell line, 48 hours, MTT, read-out: IC 50

Structure (SMILES)	IC50 (MV4-11 cells; Homo sapiens, MV4-11, 48 h)	sensitivity of MV4-11 cells (cell viability, in words) (MV4-11 cells; 48 hours, MTT)	IC50 (HL60 cells; Homo sapiens, HL-60, 48 h)	sensitivity of HL60 cells (cell viability, in words) (HL60 cells; single agent, 48 hours, MTT)	IC50 (KG1 cells; [4])	sensitivity of KG1a cells compared to KG1 cells (cell viability, in words) (KG1a cells; 48 hours, MTT)	sensitivity of HL60 cells (cell viability, in words) (HL60 cells)	cell death induction by the antineoplastic agent alone [1]	IC50 (KG1a cells; [5])	cytotoxic activity of the antineoplastic agent alone [2]	also measured
O=c1[nH]cc(F)c(=O)[nH]1 [5-Fluorouracil]	2160 µM	more resistant to 5-FU compared to Daunorubicin or Cytarabine	2450 µM	more resistant to 5-FU compared to Daunorubicin or Cytarabine	756 µM	resistant					IC50 (KG1a cells; Homo sapiens, KG-1a, 48 h, heading: IC 50, KG1a cell line, 48 hours, MTT, read-out: IC 50): 3.99 µM
N.N.[Cl][Pt][Cl] [Cisplatin]		more resistant to Cisplatin compared to Daunorubicin or Cytarabine				resistant	as sensible to Cisplatin as to Daunorubicin and Cytarabine				IC50 (MV4-11 cells; MV4-11 cell line, 48 hours, MTT, read-out: IC 50): 7.2 µM; IC50 (HL60 cells; read-out: IC 50): 3.29 µM; IC50 (KG1 cells; KG1 cell line): 3.29 µM; IC50 (KG1a cells; KG1a cell line, 48 hours, MTT, read-out: IC 50): 9.59 µM
Nc1ccn([C@@H]2O[C@H](CO)[C@@H](O)[C@@H]2O)c(=O)n1 [Cytarabine]	0.18 µM	more sensitive than KG1 cells	0.16 µM	more sensitive than KG1 cells	0.34 µM	resistant		resistant	1.53 µM	sensitive	
COc1cccc2c1C(=O)c1c(O)c3c(c(O)c1C2=O)C[C@@](O)(C(C)=O)C[C@@H]3O[C@H]1C[C@H](N)[C@H](O)[C@H](C)O1 [Daunorubicin]	0.067 µM	as sensitive as KG1 cells	0.062 µM		0.064 µM	resistant	as sensitive as KG1 cells	resistant		sensitive	IC50 (KG1a cells; Homo sapiens, KG-1a, 48 h): 1.08 µM
CC(C)CCC[C@@H](C)[C@H]1CC[C@H]2[C@@H]3C[C@@H](NCCc4cnc[nH]4)[C@@]4(O)C[C@@H](O)CC[C@]4(C)[C@H]3CC[C@]12C [Dendrogenin A, 5α-hydroxy-6β-[2-(1H-imidazol-4-yl)ethylamino]cholestan-3β-ol]		as sensitive as KG1 or KG1a cells		as sensitive as KG1 or KG1a cells	8.86 µM	as sensitive as KG1 cells			13.2 µM		cell death rate of tumor cells resistant to Daunorubicin (AML patient cells): high or moderate cell death rate; effect on resistance of KG1a cells to Daunorubicin ([1]; Dendrogenin A 5 and 10 μM with Daunorubicin 0.5 μM): able to abolish this resistance; effect on resistance of KG1a cells to Cytarabine ([1]; Dendrogenin A 5 and 10 μM with cytarabine 1 μM): able to abolish this resistance; IC50 (MV4-11 cells; Homo sapiens, MV4-11 cell line, 48 hours, MTT, read-out: IC 50): 7.27 µM; inhibition of cholesterol epoxide hydrolase [3]: selective inhibitor; IC50 (HL60 cells; Homo sapiens, HL-60, HL60 cell line, 48 hours, MTT, read-out: IC 50): 8.06 µM; effect on sensibility of KG1 cells to Daunorubicin ([2]; Dendrogenin A 2.5 μM for 24 hours, then Daunorubicin 0.05-0.5 μM for 48 hours): able to increase this sensibility; effect on sensibility of KG1 cells to Cytarabine ([2]; Dendrogenin A 2.5 μM for 24 hours, then cytarabine 0.1-1 μM for 48 hours): able to increase this sensibility
